{
  "source": "patent US20190365698A1",
  "about": "“Use of Antineoplastic Agents to Stimulate the Immune System for Treatment of Cancer” (CRITITECH, INC., priority 2018, published 2019)",
  "key": {"786-O cell line [1]": {"system": "786-O cell line", "experiment": "Renal cell adenocarcinoma xenograft: histology and immunohistochemistry (viable carcinoma size, necrosis, lymphohistiocytic infiltrate)", "format": "in vivo, Sprague-Dawley Rag2; Il2rg null (SRG) rat", "from_the_text": "Microscopic Examination: Tissues fixed with 10% NBF were embedded in paraffin. Each tumor was cut into 2-3 pieces and embedded and sectioned together."}, "[2]": {"system": "UM-UC-3 bladder cancer cell line", "experiment": "Human bladder cancer (UM-UC-3) mouse xenograft study: tumor volume", "format": "in vivo, Hsd:Athymic Nude-Foxnlnu nude mice", "description": "Tumor volume was determined with calipers. […] Animals were weighed 2×/week.\nAt day 18 after tumor implant, when average tumor size was between 50-325 mm^3, animals were sorted into five groups with equal average tumor sizes and were treated as shown in Table 25 below.\nThe second treatments (2nd cycle) occurred 7 days following first treatment (1st cycle) and third treatments (3rd cycle) occurred 14 days following the first treatment. The docetaxel solution IV was administered via the tail vein.\nVehicle (Control): Diluted 1 ml of the 1% Polysorbate 80/8% Ethanol in normal saline (0.9% Sodium Chloride for Injection) reconstitution solution with 1.5 mL of normal saline (0.9% Sodium Chloride for Injection, USP). […] Vigorously hand shook the vial with inversions for 1 minute. […] Allowed the suspension to sit undisturbed for at least 5 minutes to reduce entrapped air and foam. […] Vortexed to mix."}, "786-O cell line [3]": {"system": "786-O cell line", "experiment": "Rat xenograft model of human renal cell adenocarcinoma: tumor volume", "format": "in vivo, Sprague-Dawley Rag2; Il2rg null (SRG) rat", "settings": "IV docetaxel, 3 weekly cycles"}, "[4]": {"system": "UM-UC-3 bladder cancer cell line", "experiment": "Bladder cancer xenograft study: histology and immunohistochemistry (viable carcinoma size, necrosis, macrophage infiltrate, TLS, necropsy volume)", "protocol": "Tumors were implanted with 1×10^7 cells (1004, volume) into right flank (PBS 1:1 with matrigel: BD356234). Tumor volume was determined with calipers. Formula: V=(r length*r width*r height)*π*4/3. Animals were weighed 2×/week. Tumor volumes were determined every 3 to 4 days following tumor implant (total of ˜20 measurements) and on day of euthanasia. Photo images of tumors were obtained at 2, 3 and 4 weeks post implantation and on day of euthanasia. Animals were euthanized once the tumor reached a size of 3,000 mm^3 or up to the point of significant tumor ulceration. At the time of euthanasia, tumors were isolated and halved. […] The second half of the tumor was fixed in formalin. Two H&E stained slides/tumor were prepared (up to 4 tumor/group were processed).\nTumor tissue was fixed before H&E and IHC staining. Bladder tissue sections were deparaffinized and processed by standard H&E and IHC staining. At least four tumors per treatment group were processed."}, "[5]": {"experiment": "Solubility of the active in the receptor fluid", "format": "physicochemical", "settings": "not told, aqueous with cosolvent or surfactant or cyclodextrin; 96 wt % PBS at pH 7.4 and 4 wt % hydroxyl propyl beta cyclodextrin", "description": "The receptor fluid was degassed by filtering the receptor fluid through a ZapCap CR 0.2 μm membrane while pulling vacuum. The filtered receptor fluid was stirred for an additional 20 minutes while maintaining vacuum to ensure complete degassing."}, "[6]": {"settings": "IV Docetaxel 3 cycles, 2 animals"}},
  "note": "Where “and” joins values, the source holds several entries; their conditions need not be identical. Identical values can stand only once. Marks after values point to notes of the source that are not given here.",
  "data": [
    {"molecule": "CC(=O)O[C@@]12CO[C@@H]1C[C@H](O)[C@@]1(C)C(=O)[C@H](O)C3=C(C)[C@@H](OC(=O)[C@H](O)[C@@H](NC(=O)OC(C)(C)C)c4ccccc4)C[C@@](O)([C@@H](OC(=O)c4ccccc4)[C@H]21)C3(C)C", "note": "[Docetaxel, docetaxel]", "values": [
      {"measurement": "Histology overview (H&E) vs vehicle control", "setting": "786-O cell line [1]; Docetaxel (IV) 3 cycles, FIG. 93", "value": "no difference"},
      {"measurement": "morphologic and immunohistochemical appearance", "setting": "786-O cell line [1]; IV docetaxel, two cases", "value": "identical morphologic and immunohistochemical appearance to that seen in the control and IT vehicle groups"},
      {"measurement": "Size of residual viable carcinoma on slide: number of animals with >10 mm", "setting": "786-O cell line [1]; IV docetaxel, 2 animals", "value": 2},
      {"measurement": "residual viable carcinoma nodules, size", "setting": "786-O cell line [1]; both IV docetaxel animals", "value": "greater than 10 mm"},
      {"measurement": "Tumor volume over time", "setting": "[2]; Docetaxel IV 30 mg/kg, 3 weekly cycles, 61 days", "value": "decreased initially for dosages of nDoce IT 1 cycle and Docetaxel IV 3 cycles, but subsequently increased"},
      {"measurement": "Effectiveness in relation to initial tumor size", "setting": "[2]; Docetaxel IV 3 cycles", "value": "somewhat effective at treating small tumors, but not very effective in treating large tumors"},
      {"measurement": "tumor growth vs vehicle control", "setting": "786-O cell line [3]", "value": "partial tumor growth inhibition compared to vehicle control"},
      {"measurement": "Histological overview, general observations (H&E)", "setting": "[4]; Docetaxel Solution IV 3 cycles", "value": "many viable appearing tumor masses with some macrophage and occasional lymphocytic response along with some tumor necrosis"},
      {"measurement": "Immunohistochemistry overview, F4/80 stain", "setting": "[4]; FIG. 87, IV Docetaxel 3 cycles", "value": "Very little tumor cell destruction and few scattered mononuclear immune cells among vast number of viable tumor cells"},
      {"measurement": "# containing at least one TLS", "setting": "[4]; [6]", "value": 0},
      {"measurement": "Maximum size of viable invasive carcinoma on the slide >10 mm (number of animals)", "setting": "[4]; [6]", "value": "2*"},
      {"measurement": "Percentage of tumor showing necrosis: number of animals with 11-50%", "setting": "[4]; [6]", "value": 1},
      {"measurement": "Percentage of tumor showing necrosis: number of animals with 50-90%", "setting": "[4]; [6]", "value": 1},
      {"measurement": "Macrophage infiltrate density Mild (number of animals)", "setting": "[4]; IV Docetaxel 3 cycles, H&E and CD68", "value": 2},
      {"measurement": "Maximum tumor size on slide", "setting": "[4]; IV Docetaxel 3 cycles, individual animals B1, B3", "value": "15 mm and 11 mm"},
      {"measurement": "TLSs", "setting": "[4]; IV docetaxel 3 cycles", "value": "There were no TLSs present"},
      {"measurement": "tumor mass maximum dimension on the slide, individual cases", "setting": "[4]; IV docetaxel 3 cycles", "value": "11 mm and 15 mm"},
      {"measurement": "geographic tumor cell necrosis, share of tumor area, individual cases", "setting": "[4]; IV docetaxel 3 cycles, cases B1 and B3", "value": "11-50% and 50-90%"}
    ]},
    {"molecule": "CC(=O)O[C@@]12CO[C@@H]1C[C@H](O)[C@@]1(C)C(=O)[C@H](O)C3=C(C)[C@@H](OC(=O)[C@H](O)[C@@H](NC(=O)OC(C)(C)C)c4ccccc4)C[C@@](O)([C@@H](OC(=O)c4ccccc4)[C@H]21)C3(C)C", "note": "[Doce]", "values": [
      {"measurement": "Percentage of tissue showing necrosis: number of animals with 5-50%", "setting": "786-O cell line [1]; IV Doce, 2 animals", "value": 2},
      {"measurement": "Lymphohistiocytic infiltrate density: number of animals graded Mild", "setting": "786-O cell line [1]; IV Doce, 2 animals, H/E and CD11b staining", "value": 2}
    ]},
    {"molecule": "CC(=O)O[C@H]1C(=O)[C@@]2(C)[C@H]([C@H](OC(=O)c3ccccc3)[C@]3(O)C[C@H](OC(=O)[C@H](O)[C@@H](NC(=O)c4ccccc4)c4ccccc4)C(C)=C1C3(C)C)[C@]1(OC(C)=O)CO[C@@H]1C[C@@H]2O", "note": "[paclitaxel]", "values": [
      {"measurement": "solubility", "setting": "[5]", "value": "~0.4", "unit": "µg/mL"}
    ]}
  ]
}
